Experiments:
Haemonchus contortus [1] = test: Test A: control of barber pole worm, eggs in culture media, mortality at L3 stage; format: cell-based; settings: 120 h
Description: For evaluating control of the barber pole worm (Haemonchus contortus), a test compound was solubilized in culture media (Earle's Balanced Salt Solution) containing Haemonchus contortus eggs to obtain a final test compound concentration of 2.0 ppm. The test unit was evaluated for mortality 120 hours later after which the eggs had hatched and had advanced to the L3 stage.

Haemonchus contortus [2] = test: Test B: Haemonchus contortus burdens in infected mice after oral gavage; format: in vivo; settings: oral gavage 10.0 mg/kg body weight on day 0, Haemonchus contortus burdens on day 5 relative to vehicle-dosed controls
Description: For evaluating control of the barber pole worm (Haemonchus contortus), mice were each infected orally with 600 L3 Haemonchus contortus larvae on Day −3. On day 0, the infected mice were gavaged with a test compound (n=1) in a propylene glycol/glycerol formal solution at the rate of 10.0 mg/kg body weight. On day 5, the mice were euthanized and evaluated for Haemonchus contortus burdens relative to the vehicle-dosed controls. The range of means for the number of Haemonchus contortus in the various tests in which these compounds were studied was 92-184.

melting point [°C]	SMILES	mortality at 2 ppm (Haemonchus contortus [1]) [%]	% Efficacy (Haemonchus contortus [2]) [%]
	O=S(=O)(NCc1ccnc2ccccc12)c1ccc(C#CC2CC2)cc1 [Compound 2, 4-(2-cyclopropylethynyl)-N-(4-quinolinylmethyl)benzenesulfonamide]	100	60
	O=S(=O)(NCc1ccnc2ccccc12)c1ccc(C#Cc2ccccn2)cc1 [Compound 4, 4-[2-(2-pyridinyl)ethynyl]-N-(4-quinolinylmethyl)benzenesulfonamide]	100	89
	O=S(=O)(NCc1ccnc2ccccc12)c1ccc(C#CC2CC2)s1 [Compound 15, 5-(2-cyclopropylethynyl)-N-(4-quinolinylmethyl)-2-thiophenesulfonamide]	100	93
193 to 195	O=S(=O)(NCc1ccnc2ncccc12)c1ccc(C#CC2CC2)cc1 [Compound 48, 4-(2-cyclopropylethynyl)-N-(1,8-naphthyridin-4-ylmethyl)-benzenesulfonamide]		

— US20140315857A1, “N- (4 -QUINOLINYLMETHYL) SULFONAMIDE DERIVATIVES AND THEIR USE AS ANTHELMINTICS” (E I DU PONT DE NEMOURS AND COMPANY, priority 2011, published 2014)
